According to the supplement of paper PMC10307832:

Tests used:
Assay in all cases: relative viability (nuclei count vs DMSO), 5 days (fraction); higher = more cells survive
[1] = compound: C1=CC(=CC=C1C2=CC(=C(S2)NC(=O)N)C(=O)N)F [TPCA-1] + CS(=O)(=O)N1CCN(Cc2cc3nc(-c4cccc5[nH]ncc45)nc(N4CCOCC4)c3s2)CC1 [Pictilisib] (partner 1 µM)
Summary of the method: (§1)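 Lung cancer cell lines were seeded in 1536-well plates and dosed by pin tool the next day, with either a single drug or a fixed anchor-drug dose combined with five library-drug doses (not always all listed) spaced in √10 steps. Five days later, one step fixed the cells and stained their nuclei (final 0.05% Triton X-100, 1% formaldehyde, 1 ug/ml Hoechst), and nuclei were counted on 4× images. Relative viability is the nuclei count in treated wells divided by the count in vehicle wells, and each value is the median of duplicate plates.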

[2] = compound: C1=CC(=CC=C1C2=CC(=C(S2)NC(=O)N)C(=O)N)F [TPCA-1] + Nc1nc2[nH]cc(CCc3ccc(C(=O)N[C@@H](CCC(=O)O)C(=O)O)cc3)c2c(=O)[nH]1 [Pemetrexed] (partner 0.2 µM)
Summary of the method: as §1

[3] = compound: C1/C(=C\C2=CC=CS2)/C(=O)/C(=C/C3=CC=CS3)/C1 + O=C(c1cc(Cc2n[nH]c(=O)c3ccccc23)ccc1F)N1CCN(C(=O)C2CC2)CC1 [Olaparib] (partner 8 µM)
Summary of the method: as §1

[4] = compound: C[C@]12O[C@H](C[C@]1(O)CO)n1c3ccccc3c3c4c(c5c6ccccc6n2c5c31)CNC4=O [Lestaurtinib] + CC(=O)Nc1cccc(-n2c(=O)n(C3CC3)c(=O)c3c(Nc4ccc(I)cc4F)n(C)c(=O)c(C)c32)c1 [Trametinib] (partner 0.02 µM)
Summary of the method: as §1

| Cell Line | relative viability ([1]; first compound 0.04 µM) | relative viability ([1]; first compound 0.1265 µM) | relative viability ([1]; first compound 0.4 µM) | relative viability ([1]; first compound 1.265 µM) | relative viability ([1]; first compound 4 µM) | relative viability ([2]; first compound 0.04 µM) | relative viability ([2]; first compound 0.1265 µM) | relative viability ([2]; first compound 0.4 µM) | relative viability ([2]; first compound 1.265 µM) | relative viability ([2]; first compound 4 µM) | relative viability ([3]; first compound 0.2 µM) | relative viability ([3]; first compound 0.6325 µM) | relative viability ([3]; first compound 2 µM) | relative viability ([3]; first compound 20 µM) | relative viability ([4]; first compound 0.005 µM) | relative viability ([4]; first compound 0.01581 µM) | relative viability ([4]; first compound 0.05 µM) | relative viability ([4]; first compound 0.1581 µM) | relative viability ([4]; first compound 0.5 µM) | relative viability ([3]; first compound 6.325 µM) |
| --- | --- | --- | --- | --- | --- | --- | --- | --- | --- | --- | --- | --- | --- | --- | --- | --- | --- | --- | --- | --- |
| NCI-H520 | 0.351 | 0.242 | 0.307 | 0.319 | 0.319 | 0.779 | 0.727 | 0.737 | 0.578 | 0.608 | 0.316 | 0.34 | 0.324 | 0.35 | 0.715 | 0.676 | 0.534 | 0.42 | 0.211 | – |
| LU99A | 0.299 | 0.29 | 0.317 | 0.303 | 0.25 | 0.17 | 0.162 | 0.196 | 0.167 | 0.198 | 0.225 | 0.255 | 0.279 | 0.234 | 0.55 | 0.522 | 0.439 | 0.231 | 0.145 | 0.222 |
| NCI-H1666 | 0.419 | 0.35 | 0.412 | 0.561 | 0.404 | 1.02 | 0.818 | 0.842 | 0.82 | 0.93 | 0.76 | 0.769 | 0.77 | 0.708 | 0.898 | 0.892 | 0.882 | 0.88 | 0.781 | 0.69 |
| NCI-H2170 | 0.373 | 0.27 | 0.32 | 0.32 | 0.209 | 0.273 | 0.34 | 0.288 | 0.28 | 0.265 | 0.619 | 0.645 | 0.595 | 0.536 | 0.896 | 0.864 | 0.609 | 0.764 | 0.31 | 0.422 |
| NCI-H522 | – | – | – | – | – | 1.21 | 0.765 | 1.15 | 1.14 | 0.975 | 0.626 | 0.643 | 0.657 | 0.742 | 0.786 | 0.786 | 0.752 | 0.701 | 0.537 | 0.625 |
| LCLC-97TM1 | 0.183 | 0.157 | 0.199 | 0.151 | 0.111 | 0.17 | 0.186 | 0.163 | 0.153 | 0.154 | 0.459 | 0.389 | 0.344 | 0.347 | – | 0.196 | 0.199 | 0.157 | 0.226 | 0.275 |
| NCI-H1299 | 0.854 | 0.669 | 0.828 | 0.614 | 0.243 | – | – | – | – | – | 1.01 | 0.969 | 0.953 | 0.962 | – | – | – | – | – | 0.817 |
| NCI-H3122 | 0.725 | 0.511 | 0.603 | 0.612 | 0.595 | 0.203 | 0.23 | 0.222 | 0.191 | 0.19 | 0.655 | 0.645 | 0.648 | 0.578 | 0.298 | 0.228 | 0.228 | 0.223 | 0.335 | 0.537 |
| NCI-H1395 | 0.694 | 0.66 | 0.68 | 0.505 | 0.607 | 0.857 | 0.859 | 1.06 | 0.847 | 0.629 | 0.494 | 0.53 | 0.435 | 0.453 | 1.17 | 0.896 | 0.927 | 0.923 | 0.608 | 0.458 |
| Calu-6 | 0.954 | 0.841 | 0.946 | 0.785 | 0.469 | – | – | – | – | – | 0.548 | 0.595 | 0.55 | 0.524 | – | – | – | – | – | 0.586 |
| NCI-H1703 | 0.263 | 0.284 | 0.259 | – | 0.213 | – | – | – | – | – | 0.547 | 0.54 | 0.536 | 0.574 | – | – | – | – | – | 0.423 |
| NCI-H727 | 0.389 | 0.249 | 0.35 | 0.28 | 0.222 | – | – | – | – | – | 0.803 | 0.627 | 0.755 | 0.697 | 0.375 | 0.452 | 0.423 | – | 0.405 | – |
| NCI-H2342 | – | – | – | – | – | 0.821 | 0.709 | 0.778 | 0.609 | 0.584 | 0.392 | 0.464 | 0.454 | 0.435 | 0.836 | 0.817 | 0.841 | 0.849 | 0.971 | 0.419 |
| SW 900 | – | – | – | – | – | – | – | 0.492 | 0.495 | 0.468 | 0.752 | 0.839 | 0.87 | 0.99 | 0.959 | 0.86 | 0.691 | 1.16 | 0.876 | 0.882 |
| ABC-1 | 0.82 | 0.479 | 0.672 | 0.429 | 0.524 | – | – | – | – | – | 1.02 | 0.984 | 1.11 | 0.779 | – | – | – | – | – | 0.842 |
| NCI-H1648 | – | – | – | – | – | 0.824 | 0.702 | 0.769 | 0.76 | 0.809 | 0.855 | 0.81 | 1.03 | 0.814 | – | 0.728 | – | 0.458 | 0.367 | 0.792 |
| IA-LM | 0.319 | 0.339 | 0.417 | 0.376 | 0.404 | – | – | – | – | – | 0.874 | 0.871 | 0.755 | 0.879 | – | – | – | – | – | 0.618 |
| A549 | 0.676 | 0.517 | – | 0.378 | 0.242 | – | – | – | – | – | 0.352 | 0.283 | 0.642 | 0.354 | – | – | – | – | – | 0.286 |
